{"source": "patent US7514406B2", "about": "“Methods for inhibiting deacetylase activity” (Fred Hutchinson Cancer Research Center, priority 2001, dated 2009)", "key": {"[1]": {"system": "silenced telomeric URA3 gene", "test": "URA3 telomeric silencing assay (cell-based screen for Sir2p inhibitors)", "set-up": "species or system S. cerevisiae", "method": "In order to find inhibitors of the deacetylase activity of Sir2p, screening was carried out to identify compounds that perturbed silencing at each of the loci at which Sir2p is known to act in S. cerevisiae: telomeres, HML, HMR, and the rDNA. The cell-based positive selection screen was designed so that inhibition of Sir2p activity permitted normal cell growth in order to avoid identifying cytotoxic compounds. Briefly, a yeast strain containing a marker gene, such as a nutritional marker, in close proximity to a telomeres in S. cerevisiae such that it is repressed by telomeric chromatin, is exposed to a test compound or set of test compounds dissolved in DMSO and cultured under suitable conditions and in media supplemented to permit growth only under conditions in which the marker gene is expressed. After a suitable interval, the optical density of the culture is measured. An increase in optical density corresponds to growth indicating a perturbation of silencing of the marker gene. All strains in this and other examples herein can be grown in synthetic complete media (SC) or selective synthetic drop-out media containing 2% glucose.\nInitial screening for compounds that effect silencing was carried out using a URA3 assay. […] Eleven compounds identified in this primary screen were analyzed further to determine whether silencing at the HML and HMR loci was also affected."}, "[2]": {"system": "TRP1 gene integrated at the silent HMR locus", "test": "TRP1 reporter at silent HMR locus growth assay", "format": "cell-based, S. cerevisiae", "conditions": "tryptophan-deficient media, 36-48 h", "method": "A secondary screening of the eleven identified compounds was carried out using a TRP1 gene which utilized a yeast strain with a TRP1 gene integrated at the silent HMR locus cannot grow in media lacking tryptophan (Buck, S. W. & Shore, D. (1995) Genes Dev. 9, 370-84). Using the method essentially described above, wells in a 96-well plate were inoculated with 150 μL of yeast culture (a yeast strain with a TRP1 gene integrated at the silent HMR locus), containing 1×10^5 cell/ml in tryptophan-deficient media. The eleven compounds dissolved in DMSO were added to the cells and the cultures are incubated for 36-48 h and growth in individual wells is tested by optical density (OD660) measurements and visual inspection."}, "rDNA locus": {"system": "rDNA locus", "test": "Recombination at the rDNA locus (loss of ADE2 integrated into the rDNA array)", "format": "cell-based, S. cerevisiae", "method": "Silencing within the rDNA locus is manifested in two ways. It can weakly repress expression of an inserted reporter gene (Smith, J. S. & Boeke, J. D. (1997) Genes Dev. 11, 241-54), and it reduces recombination between tandem copies of the ribosomal RNA genes (Gottlieb, S. & Esposito, R. E. (1989) Cell 56, 771-6). Recombination was analyzed by measuring the loss rate of an ADE2 gene integrated into the rDNA array essentially as described by Kaeberlein, M., et al. (1999 Genes Dev. 13, 2570-80). […] After six hours, the cultures were plated onto rich medium and the loss of expression of the ADE2 gene was measured and scored by the development of sectored red colonies. […] Treatment with SI increased recombination rate at the rDNA locus seven-fold, which is similar to rates observed in a sir2 mutant (FIG. 1D)."}, "HMLα locus in MATa cells": {"system": "HMLα locus in MATa cells", "test": "Pheromone response assay, silencing at the HMLα locus in MATa cells", "format": "cell-based, S. cerevisiae", "from_the_text": "When haploid MATa cells are exposed to the mating pheromone […], they arrest in G1 phase of the cell cycle. Loss of silencing at the HMLα locus in MATa cells results in expression of a mating type genes (Marsh, L., et al. (1991) Annu. Rev. Cell Biol. 7, 699-728). The coexpression of α and a genes creates a pseudo-diploid state: cells are immune to […] and unable to mate."}, "[3]": {"system": "wild type BY4741 cells vs sir2, hst1, hst2, hst3, hst4 deletion mutants", "test": "Whole genome DNA microarray transcriptional profiling", "format": "cell-based, S. cerevisiae", "from_the_text": "In addition to SIR2, the S. cerevisiae genome encodes four SIR2 homologues: HST1-4 (Homologue of Sir Two) (Brachmann, C. B., et al. (1995) Genes Dev. 9, 2888-902). Hst2p is located in the cytoplasm and is responsible for virtually all the NAD^+-dependent deacetylase activity detected in a cellular lysate (Smith, J. S., et al., (2000) Proc. Natl. Acad. Sci. USA 97, 6658-63). Its relevant biological substrate is unknown. Hst1p is required for transcriptional repression of meiotic genes (Xie, J., et al. (1999) EMBO J. 18, 6448-54), whereas little is known about the cellular function of Hst3p or Hst4p.\nStrains for the DNA array experiments for the whole genome analysis were obtained from Research Genetics (wild type BY4741: MATa his3, leu2, met15, […] or isogenic sir2, hst1, hst2, hst3 and hst4 deletion mutants). Several colonies from fresh cultures were inoculated into synthetic complete medium with 2% glucose, grown overnight at 30° C., diluted to 0.5−1×10^6 cell/ml and grown for an additional 6-9 hours until reaching a density of 0.5−1×10^7 cells/ml. […] Total RNA was extracted using the hot acid phenol method. Microarray construction and hybridization protocols were modified from those described elsewhere (DeRisi, J. L. et al. (1997) Science 278, 680-6). Briefly, yeast microarrays were constructed employing a set of ˜6200 or specific PCR primer pairs (Research Genetics, Huntsville, Ala.), which were used to amplify each open reading frame (orf) of the yeast genome. Individual PCR products were verified as unique via gel electrophoresis and purified using ARRAYIT 96-well PCR purification kits (TeleChem International, Sunnyvale, Calif.). Purified PCR products were mechanically “spotted” in 3×SSC (450 mM sodium chloride and 45 mM sodium citrate, pH 7.0) onto poly-lysine coated microscope slides using an OMNIGRID high-precision robotic gridder (GeneMachines, San Carlo, Calif.). […]"}, "[4]": {"system": "mutant SIR2 (GAL-SIR2-Y298N or GAL-SIR2-H286Q)", "test": "HDA assay with drug resistant mutant Sir2p", "format": "biochemical, S. cerevisiae", "conditions": "in vitro, equivalent amounts of protein", "protocol": "Briefly, histone H4 was chemically acetylated using the HDAC Assay Kit (Upstate Biotechnology). […] For the histone deacetylase assays, 50 μg of yeast whole-cell protein extract was incubated with [^3H] acetylated histone H4-peptide (40,000 cpm) with or without 500 μM NAD^+ in a 100 μl reaction. The buffer contained 150 mM NaCl, 25 mM sodium phosphate pH 7.4 and 1 mM DTT. Reactions were incubated at 30° C. for 16 hours and were stopped by the addition of 25 μl of 1 N HCl and 0.15 N acetic acid. Released [^3H] acetate was extracted with 400 μl of ethyl acetate.\nTo obtain further insight into the molecular mechanism by which S I inhibited deacetylase activity of Sir2p, mutant forms of Sir2p were generated that were resistant to the compound. […] Plasmid DNA was recovered from the individual colonies and was retransformed into the test strain to assure that drug resistance was conferred by SIR2-containing plasmid."}, "[5]": {"system": "silent HML locus in G1-arrested MATa cells", "test": "Maintenance of silent state in G1-arrested MATa cells", "format": "cell-based, S. cerevisiae", "from_the_text": "This was presumably due to loss of mating competence, a consequence of expression of the α2 gene from the “silent” HML locus. To test this idea more directly, a MATa strain with a single G1 cyclin gene (CLN3), which is under control of a galactose-inducible promoter (Cross, F. R. (1990) Mol. Cell Biol. 10, 6482-90), was arrested in G1 by replacing galactose with glucose in the media."}, "mammalian cells": {"system": "mammalian cells", "test": "Toxicity assays using S1 and a variety of DNA damaging agents", "format": "cell-based", "from_the_text": "(1996) Science 272, 408-11)). In addition to histones, many other proteins are regulated by acetylation, including pRb, E2F and p53 proteins (Chan, H. M., et al. (2001) Nat. Cell Biol. 3,667-74; Martinez-Balbas, M. A., et al. (2000) EMBO J. 19,662-71; and Luo, J., et al. (2000) Nature 408, 377-81). Two recent reports (Vaziri, H., et al. (2001) Cell 107, 149-159 and Luo, J., et al. (2001) Cell 107, 137-148) implicate deacetylation of p53, by Sir2, in down-regulation of transcriptional and proapoptotic activities of p53 in response to DNA damage. […] P. (2001) Oncogene 20, 2988-90 and Tycko, […]. Clin. Invest 105, 245-6)."}, "[6]": {"system": "primary human fibroblasts (HFF)", "test": "Sensitization to etoposide, 3H-thymidine incorporation viability", "format": "cell-based", "conditions": "S1 25, 50 and 100 μM with etoposide, 72 hours", "method": "(§1) To test whether S1 could sensitize cells to DNA damage, mammalian cells were exposed to etoposide, a DNA damaging agent, in the presence and absence of S1. […] Viability of cells was assessed with 3H-thymidine incorporation."}, "Rat1a cells": {"system": "Rat1a cells", "test": "Sensitization to etoposide, 3H-thymidine incorporation viability", "format": "cell-based, rat", "conditions": "S1 25, 50 and 100 μM with etoposide, 72 hours", "method": "as §1"}, "[7]": {"conditions": "50 μg/ml cycloheximide 40 minutes prior to S1"}}}
{"smiles": "O=C1CCc2c(ccc3ccccc23)O1", "note": "[S1, 1,2-dihydro-3H-naphtho[2,1-b]pyran-3-one]", "values": [{"measurement": "disruption of silencing in drug resistant SIR2 mutants vs wild type strains", "setting": "[1]; SIR2-H286Q, SIR2-L287Q, SIR2-Y298N", "result": "required higher concentrations"}, {"measurement": "silencing at telomeric loci", "setting": "[1]; URA3 telomeric marker, uracil-deficient media, 0.5, 5 and 50 μM, 36-48 h", "result": "disrupted silencing"}, {"measurement": "growth in media lacking tryptophan (loss of silencing at HMR)", "setting": "[2]", "result": "enabled cells to grow in media lacking tryptophan"}, {"measurement": "silencing of a reporter gene within the rDNA locus", "setting": "rDNA locus", "result": "disrupted silencing"}, {"measurement": "increase of recombination rate at the rDNA locus", "setting": "rDNA locus; 15 μM, six hours, similar to rates in a sir2 mutant", "result": "seven-fold"}, {"measurement": "effect on rDNA recombination in sir2 cells", "setting": "rDNA locus; sir2 cells treated with the compound", "result": "no effect"}, {"measurement": "silencing at HML", "setting": "HMLα locus in MATa cells", "result": "disrupted silencing at HML"}, {"measurement": "mating of MATa cells", "setting": "HMLα locus in MATa cells; in the presence of S1", "result": "defective for mating"}, {"measurement": "responsiveness of MATa cells to α factor", "setting": "HMLα locus in MATa cells; in the presence of S1", "result": "lost responsiveness to α factor"}, {"measurement": "overlap with HST2, HST3 or HST4 regulated genes", "setting": "[3]", "result": "no overlap"}, {"measurement": "transcriptional down-regulation by S1 in the absence of new protein synthesis", "setting": "[3]; [7]", "result": "virtually all transcriptional down-regulation was abolished"}, {"measurement": "upregulation of genes by S1 with cycloheximide", "setting": "[3]; [7]", "result": "did not affect"}, {"measurement": "inhibitory effect on histone deacetylase activity of mutant proteins vs wild type Sir2p", "setting": "[4]", "result": "increased resistance"}, {"measurement": "α2 mRNA expression from HML in G1-arrested cells", "setting": "[5]; CLN3 galactose-inducible strain arrested by glucose, DMSO control", "result": "detected only in the S1-treated cells"}, {"measurement": "cell cycle progression of α factor G1-arrested MATa cells", "setting": "[5]; untreated cells remained arrested in G1", "result": "progressed through the cell cycle"}, {"measurement": "sensitization to DNA damaging agents", "setting": "mammalian cells", "result": "sensitizes mammalian cells"}, {"measurement": "sensitization to etoposide", "setting": "[6]", "result": "dose-dependent sensitization"}, {"measurement": "sensitization to etoposide", "setting": "Rat1a cells", "result": "dose-dependent sensitization"}]}
